This note sets out measurements from US20240425490A1, “SULFAMIDE RIBONUCLEOTIDE REDUCTASE (RNR) INHIBITORS AND USES THEREOF” (Boundless Bio, Inc., priority 2021, published 2024).

The target in the test is T1, RNR (RNR1:RNR2 1:1) (Homo sapiens, UniProt P23921).
T1 sequence (P23921 1-792): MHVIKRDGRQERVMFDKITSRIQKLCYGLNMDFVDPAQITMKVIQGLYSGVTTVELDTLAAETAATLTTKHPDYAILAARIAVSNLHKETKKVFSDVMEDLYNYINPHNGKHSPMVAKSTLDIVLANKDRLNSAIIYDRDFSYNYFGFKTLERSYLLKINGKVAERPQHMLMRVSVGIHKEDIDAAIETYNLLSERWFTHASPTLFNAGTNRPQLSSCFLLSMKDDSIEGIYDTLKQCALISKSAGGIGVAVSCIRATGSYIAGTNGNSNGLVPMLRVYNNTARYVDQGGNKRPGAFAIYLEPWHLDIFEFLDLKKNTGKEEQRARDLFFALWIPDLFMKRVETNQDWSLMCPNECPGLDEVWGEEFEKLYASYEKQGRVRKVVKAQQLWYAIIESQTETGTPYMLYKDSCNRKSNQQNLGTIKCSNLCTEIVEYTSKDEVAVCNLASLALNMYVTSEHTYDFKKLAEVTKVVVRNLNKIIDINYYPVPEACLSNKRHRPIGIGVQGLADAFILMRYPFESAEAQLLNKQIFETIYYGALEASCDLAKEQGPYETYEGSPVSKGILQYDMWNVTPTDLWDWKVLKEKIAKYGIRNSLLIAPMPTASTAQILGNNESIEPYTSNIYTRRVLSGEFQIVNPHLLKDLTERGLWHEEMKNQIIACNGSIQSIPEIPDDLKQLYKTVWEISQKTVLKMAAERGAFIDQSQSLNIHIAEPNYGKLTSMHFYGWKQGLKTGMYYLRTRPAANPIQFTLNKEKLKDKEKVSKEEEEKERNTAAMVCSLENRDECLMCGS
As to the kind of experiment: RNR enzyme activity, rapid-fire mass spectrometry (RFMS) assay. The class given is biochemical. The following applies: RNR 50 nM, CDP 5 μM, ATP 1 mM, 37° C., 45 min, compounds screened up to 50 μM, read-out: RF/MS IC50. The method in brief:
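Human RNR1:RNR2 (1:1, 50 nM) pre-incubated 15 min at room temperature with compound, then reacted with 5 μM CDP and 1 mM ATP, no NADPH, for 45 min at 37 °C. Stopped with 6% HCOOH; turnover read by rapid-fire mass spectrometry; Triapine and hydroxyurea as reference compounds.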
Regarding `Cc1ccc(F)c([C@H](C)[C@H](NS(=O)(=O)N2CCC3(CCCN(C)C3)CC2)c2n[nH]c(=O)o2)c1C` [Example 84, N-((1S,2S)-2-(6-fluoro-2,3-dimethylphenyl)-1-(5-oxo-4,5-dihydro-1,3,4-oxadiazol-2-yl)propyl)-2-methyl-2,9-diazaspiro[5.5]undecane-9-sulfonamide], the IC50 was 10 to 100 µM. On to `Cc1ccc(F)c(C(C)[C@H](NS(=O)(=O)N2CCC3(CC2)OCc2ccccc23)c2n[nH]c(=O)o2)c1C` (stereo partly drawn) [Example 73, N-((1S)-2-(6-fluoro-2,3-dimethylphenyl)-1-(5-oxo-4,5-dihydro-1,3,4-oxadiazol-2-yl)propyl)-3H-spiro[isobenzofuran-1,4′-piperidine]-1′-sulfonamide], for which the IC50 lay in the range of 0.1 to 1 µM. As for `Cc1ccc(F)c(C(C)[C@H](NS(=O)(=O)N2CCC(C(=O)N(C)C)CC2)c2n[nH]c(=O)o2)c1C` (stereo partly drawn) [Example 64, 1-(N-((1S)-2-(6-fluoro-2,3-dimethylphenyl)-1-(5-oxo-4,5-dihydro-1,3,4-oxadiazol-2-yl)propyl)sulfamoyl)-N,N-dimethylpiperidine-4-carboxamide], the IC50 was 1 to 10 µM.

`CC(=O)[C@@H]1CCCCN1S(=O)(=O)N[C@H](c1n[nH]c(=O)o1)[C@@H](C)c1c(F)ccc(C)c1C` [Example 18, (S)-2-acetyl-N-((1S,2S)-2-(6-fluoro-2,3-dimethylphenyl)-1-(5-oxo-4,5-dihydro-1,3,4-oxadiazol-2-yl)propyl)piperidine-1-sulfonamide]: the IC50 was 1 to 10 µM. On to `Cc1ccc(F)c(C(C)[C@H](NS(=O)(=O)N2CCC(CN(C)C)CC2)c2n[nH]c(=O)o2)c1C` (stereo partly drawn) [Example 31, 4-((dimethylamino)methyl)-N-((1S)-2-(6-fluoro-2,3-dimethylphenyl)-1-(5-oxo-4,5-dihydro-1,3,4-oxadiazol-2-yl)propyl)piperidine-1-sulfonamide], for which the IC50 lay within 10 to 100 µM.

For `Cc1ccc(F)c([C@H](C)[C@H](NS(=O)(=O)N2CC(C)CC(C)C2)c2n[nH]c(=O)o2)c1C` (stereo partly drawn) [Example 122, N-((1S,2S)-2-(6-fluoro-2,3-dimethylphenyl)-1-(5-oxo-4,5-dihydro-1,3,4-oxadiazol-2-yl)propyl)-3,5-dimethylpiperidine-1-sulfonamide], the IC50 lay within 1 to 10 µM.

In the case of `CNC(=O)C1CCN(S(=O)(=O)N[C@H](c2n[nH]c(=O)o2)[C@H](C)c2c(F)ccc(C)c2C)CC1` [Example 57, 1-(N-((1S,2R)-2-(6-fluoro-2,3-dimethylphenyl)-1-(5-oxo-4,5-dihydro-1,3,4-oxadiazol-2-yl)propyl)sulfamoyl)-N-methylpiperidine-4-carboxamide], the IC50 was in the range of 1 to 10 µM. In the case of `Cc1ccc(F)c(C(C)[C@H](NS(=O)(=O)N2CCCC(C(C)C)C2)c2n[nH]c(=O)o2)c1C` (stereo partly drawn) [Example 24, N-((1S)-2-(6-fluoro-2,3-dimethylphenyl)-1-(5-oxo-4,5-dihydro-1,3,4-oxadiazol-2-yl)propyl)-3-isopropylpiperidine-1-sulfonamide], the IC50 was in the range of 0.1 to 1 µM.

Take `Cc1ccc(F)c([C@@H](C)[C@H](NS(=O)(=O)N2CCC(C)(C)CC2)c2n[nH]c(=O)o2)c1C` [Example 113, N-((1S,2R)-2-(6-fluoro-2,3-dimethylphenyl)-1-(5-oxo-4,5-dihydro-1,3,4-oxadiazol-2-yl)propyl)-4,4-dimethyl piperidine-1-sulfonamide]: the IC50 was 0.1 to 1 µM. Take `CC(=O)NC1CCN(S(=O)(=O)N[C@H](c2n[nH]c(=O)o2)[C@@H](C)c2c(F)ccc(C)c2C)CC1` [Example 30, N-(1-(N-((1S,2S)-2-(6-fluoro-2,3-dimethylphenyl)-1-(5-oxo-4,5-dihydro-1,3,4-oxadiazol-2-yl)propyl)sulfamoyl)piperidin-4-yl)acetamide]: the IC50 was 1 to 10 µM. To `Cc1ccc(F)c([C@H](C)[C@H](NS(=O)(=O)N2CC3CCCC(C3)C2)c2n[nH]c(=O)o2)c1C` [Example 42, N-((1S,2S)-2-(6-fluoro-2,3-dimethylphenyl)-1-(5-oxo-4,5-dihydro-1,3,4-oxadiazol-2-yl)propyl)-3-azabicyclo[3.3.1]nonane-3-sulfonamide] belongs 10 to 100 µM; to `Cc1ccc(F)c(C(C)[C@H](NS(=O)(=O)N2CCC(C#N)CC2)c2n[nH]c(=O)o2)c1C` (stereo partly drawn) [Example 123, 4-cyano-N-((1S)-2-(6-fluoro-2,3-dimethylphenyl)-1-(5-oxo-4,5-dihydro-1,3,4-oxadiazol-2-yl)propyl)piperidine-1-sulfonamide], 0.1 to 1 µM; to `Cc1ccc(F)c([C@@H](C)[C@H](NS(=O)(=O)N2CCC(c3nncn3C)CC2)c2n[nH]c(=O)o2)c1C` [Example 52, N-((1S,2R)-2-(6-fluoro-2,3-dimethylphenyl)-1-(5-oxo-4,5-dihydro-1,3,4-oxadiazol-2-yl)propyl)-4-(4-methyl-4H-1,2,4-triazol-3-yl)piperidine-1-sulfonamide], 10 to 100 µM. With `COCC1CCCN(S(=O)(=O)N[C@H](c2n[nH]c(=O)o2)[C@H](C)c2c(F)ccc(C)c2C)C1` (stereo partly drawn) [Example 129, N-((1S,2R)-2-(6-fluoro-2,3-dimethylphenyl)-1-(5-oxo-4,5-dihydro-1,3,4-oxadiazol-2-yl)propyl)-3-(methoxymethyl)piperidine-1-sulfonamide], the IC50 was in the range of 1 to 10 µM. To `Cc1ccc(F)c([C@H](C)[C@H](NS(=O)(=O)N2CCC(CCl)CC2)c2n[nH]c(=O)o2)c1C` [Example 40, 4-(chloromethyl)-N-((1S,2S)-2-(6-fluoro-2,3-dimethylphenyl)-1-(5-oxo-4,5-dihydro-1,3,4-oxadiazol-2-yl)propyl)piperidine-1-sulfonamide] belongs 10 to 100 µM; to `Cc1ccc(F)c([C@H](C)[C@H](NS(=O)(=O)N2CCC(Cl)CC2)c2n[nH]c(=O)o2)c1C` [Example 6, 4-chloro-N-((1S,2S)-2-(6-fluoro-2,3-dimethylphenyl)-1-(5-oxo-4,5-dihydro-1,3,4-oxadiazol-2-yl)propyl)piperidine-1-sulfonamide], 1 to 10 µM; to `CC(=O)N1CCN(S(=O)(=O)N[C@H](c2n[nH]c(=O)o2)C(C)c2c(F)ccc(C)c2C)CC1` (stereo partly drawn) [Example 37, 4-acetyl-N-((1S)-2-(6-fluoro-2,3-dimethylphenyl)-1-(5-oxo-4,5-dihydro-1,3,4-oxadiazol-2-yl)propyl)piperazine-1-sulfonamide], 1 to 10 µM. To `Cc1ccc(F)c([C@@H](C)[C@H](NS(=O)(=O)N2CCC(C)(C#N)CC2)c2n[nH]c(=O)o2)c1C` [Example 81, 4-cyano-N-((1S,2R)-2-(6-fluoro-2,3-dimethylphenyl)-1-(5-oxo-4,5-dihydro-1,3,4-oxadiazol-2-yl)propyl)-4-methylpiperidine-1-sulfonamide] belongs 0.1 to 1 µM; to `Cc1ccc(F)c([C@@H](C)[C@H](NS(=O)(=O)N2CCc3ccccc3C2)c2n[nH]c(=O)o2)c1C` [Example 135, N-((1S,2R)-2-(6-fluoro-2,3-dimethylphenyl)-1-(5-oxo-4,5-dihydro-1,3,4-oxadiazol-2-yl)propyl)-3,4-dihydroisoquinoline-2(1H)-sulfonamide], 0.1 to 1 µM; to `Cc1ccc(F)c([C@@H](C)[C@H](NS(=O)(=O)N2CCC(C(C)(C)C)CC2)c2n[nH]c(=O)o2)c1C` [Example 131, 4-(tert-butyl)-N-((1S,2R)-2-(6-fluoro-2,3-dimethylphenyl)-1-(5-oxo-4,5-dihydro-1,3,4-oxadiazol-2-yl)propyl)piperidine-1-sulfonamide], 0.1 to 1 µM. For `Cc1ccc(F)c([C@@H](C)[C@H](NS(=O)(=O)N2CCC(Cl)CC2)c2n[nH]c(=O)o2)c1C` [Example 5, 4-chloro-N-((1S,2R)-2-(6-fluoro-2,3-dimethylphenyl)-1-(5-oxo-4,5-dihydro-1,3,4-oxadiazol-2-yl)propyl)piperidine-1-sulfonamide], the IC50 fell in the range of 0.1 to 1 µM. To `Cc1ccc(F)c([C@@H](C)[C@H](NS(=O)(=O)N2CCC(c3c[nH]c4ccccc34)CC2)c2n[nH]c(=O)o2)c1C` [Example 68, N-((1S,2R)-2-(6-fluoro-2,3-dimethylphenyl)-1-(5-oxo-4,5-dihydro-1,3,4-oxadiazol-2-yl)propyl)-4-(1H-indol-3-yl)piperidine-1-sulfonamide] belongs 1 to 10 µM; to `Cc1ccc(F)c(C(C)[C@H](NS(=O)(=O)N2CCN(CC(F)F)CC2)c2n[nH]c(=O)o2)c1C` (stereo partly drawn) [Example 124, 4-(2,2-difluoroethyl)-N-((1S)-2-(6-fluoro-2,3-dimethylphenyl)-1-(5-oxo-4,5-dihydro-1,3,4-oxadiazol-2-yl)propyl)piperazine-1-sulfonamide], 1 to 10 µM; to `Cc1ccc(F)c(C(C)[C@H](NS(=O)(=O)N2CCC(C3CC3)CC2)c2n[nH]c(=O)o2)c1C` (stereo partly drawn) [Example 49, 4-cyclopropyl-N-((1S)-2-(6-fluoro-2,3-dimethylphenyl)-1-(5-oxo-4,5-dihydro-1,3,4-oxadiazol-2-yl)propyl)piperidine-1-sulfonamide], 1 to 10 µM.
